Key:
[1] = tested on: subjects with Parkinson's Disease (PD); experiment: Speech assessment with digital mobile speech-based platform in OFF vs ON medication state; type: in vivo, human; settings: before vs after levodopa treatment, FIG. 103
Description: Additionally, subjects were also tasked with performing voice and speech assessments using the digital mobile speech-based platform. These speech and language tasks were designed to evaluate different aspects of verbal ability and cognitive function in participants. In an aspect, these tasks were organized to be conducted in a quiet environment to ensure accurate measurement of speech parameters. In a picture description task, participants are shown a static image depicting an event and asked to describe it in their own words. This task serves as a proxy for spontaneous discourse, providing insights into natural language use. […] In a paragraph reading task, participants were required to read one of three standard paragraphs designed to include all English language phonemes and an equal number of details and information units. This task evaluates reading fluency and pronunciation. […] During this task, gait parameters were measured simultaneously using the wearable insoles test device and the production device. […] This involved repeating the same set of voice-related activities performed in the OFF state, including paragraph reading, picture description, object naming, rapid syllable repetition, and sustained phonation. Conducting these tasks in a quiet environment ensured that the speech parameters were accurately measured without external distractions. […]

[2] = tested on: subjects with Parkinson's Disease (PD); experiment: Levodopa challenge test: MDS-UPDRS Part III motor examination in OFF state vs ON state; type: in vivo, human; settings: ON minus OFF, mean (SD)
Description: To participate in the study, participants were required to meet several inclusion criteria. First, they needed a clinical diagnosis of PD confirmed by a treating movement disorders neurologist. Participants had to be between the ages of 40 and 70. […] Participants had to be willing to undergo a levodopa challenge test, which involves coming to an assessment site for evaluation in the morning after not taking levodopa since the night before (e.g., at least 12 hours). They would then take levodopa at the site, wait for it to take effect (achieving the “ON” state), and repeat the motor evaluation. Additionally, participants needed to be ambulatory in the “OFF” state, meaning they could walk safely without a walking aid on a flat surface at the start of the levodopa challenge test. […]
At step 305, system 100 may receive data from subjects that were assessed in an OFF-state. […]
In some aspects, the site investigator, who is a movement disorders specialist, was tasked with performing the MDS-UPDRS Part III motor examination. […] Specific tasks, including toe tapping and leg agility, were performed using the production device while wearing the wearable insole tests device to enable a quantitative analysis of these movements.
At step 310, system 100 may receive data from the subjects that were assessed in the ON-state. […]

N[C@@H](Cc1ccc(O)c(O)c1)C(=O)O [levodopa]
change in average word duration between medication states [1]: prevalent trend of decreasing word duration | mean difference in the MDS-UPDRS III between the ON and OFF state ([2]; all subjects): -19.1 (SD=10) | mean difference in the LE subscore between the ON and OFF state ([2]; lower extremity subscore of MDS-UPDRS III): −5.7 (SD=4)

— patent publication US20250292907A1, “SYSTEMS AND METHODS FOR PERFORMING GAIT AND SPEECH ASSESSMENT ASSOCIATED WITH A DISEASE STATE” (Regeneron Pharmaceuticals, Inc., priority 2024, published 2025)
